The source of these data is US8337835B2, “Use of an endogenous ligand for peroxisome proliferator activated receptor alpha to treat liver disorders” (priority 2009, dated 2012).

In series [1] the test system is PPARα target gene acyl CoA oxidase. Put plainly: Establishing conditions (dose, rate) for portal vein infusion. The series is classed as in vivo, mouse. The method, then:
We therefore extrapolated the doses in mice taking into account the direct intraportal route, and tested doses ranging from 0.1 mg/day to 10 mg/day based on a 25 g mouse. […] Optimal dosing frequency was determined based on kinetic data obtained by injection of ^14C-labeled 16:0/18:1-GPC (American Radiochemicals, St. Louis) into the portal vein of […] mice as shown in FIG. 12. Following a single injection into the portal vein (1.9 μCi/mouse), total counts from both cytoplasmic and nuclear fractions were obtained (FIG. 12A). Using standard pharmacokinetic equations (Hardman et al., 2001), a dosing interval of 8.7 hours was calculated, indicating an optimal dosing frequency of three times a day.

A further series deals with T1, ΔDBD-PPARα (Mus musculus, UniProt P23204, C119A/C122A).
T1 construct: expressed in transfected cells; host or cells: liver of chow-fed WT mice on a PPARα null background, infected with AdFLAG-ΔDBD PPARα adenovirus
T1 sequence (P23204 1-468 C119A/C122A): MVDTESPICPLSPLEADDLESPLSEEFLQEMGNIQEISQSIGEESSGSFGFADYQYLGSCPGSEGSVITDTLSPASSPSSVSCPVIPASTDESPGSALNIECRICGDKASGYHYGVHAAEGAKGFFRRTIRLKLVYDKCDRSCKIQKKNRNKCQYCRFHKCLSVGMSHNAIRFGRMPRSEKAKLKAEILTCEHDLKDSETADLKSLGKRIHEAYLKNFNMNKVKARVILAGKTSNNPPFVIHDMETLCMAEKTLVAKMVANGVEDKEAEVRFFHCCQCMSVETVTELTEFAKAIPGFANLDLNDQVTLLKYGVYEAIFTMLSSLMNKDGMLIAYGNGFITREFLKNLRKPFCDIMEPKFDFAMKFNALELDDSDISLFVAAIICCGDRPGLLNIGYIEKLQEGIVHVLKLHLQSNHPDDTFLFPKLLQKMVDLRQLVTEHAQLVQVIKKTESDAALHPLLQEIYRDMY
Put plainly: In vivo competitive inhibition with PPARα having a defective DNA binding domain. Particulars: 50 μg/g intraperitoneal; chow fed WT mice on PPARα null background with AdFLAG-ΔDBD PPARα; 0-60 min. An excerpt: Adenovirus encoding both FLAG®-tagged wild type mouse PPARα and a GFP marker, and an adenovirus encoding GFP alone were gifts from T. C. Leone and D. P. Kelly. The AdPPARα virus is known to result in expression of a protein that transactivates PPARα target genes (Bernal-Mizrachi et al., 2003; Tordjman et al., 2002). The DNA binding domain (DBD) mutant of PPARα was generated by mutating the two highly conserved cysteine residues (Shi et al., 2002) to alanine (C119A, C122A) using site-directed mutagenesis (QuikChange® kit, Stratagene). The DBD mutant was subcloned into the pCMV-TAG1 vector (Stratagene) to acquire a FLAG® tag, then shuttled into pAdTrack-CMV vector encoding a GFP marker and recombined with Ad-Easy1 vector. The pAdTrack-CMV and pAdEasy-1 vectors were gifts from the laboratory of B. Vogelstein. […]
To address the concern that lipid loss could represent Wy14,643-accelerated metabolism as opposed to displacement of the ligand, 1-palmitoyl-2-oleoyl-sn-glycerol-3-phosphocholine (16:0/18:1-GPC) from its binding site on PPARα, an in vivo competitive inhibition experiment using a PPARα molecule with a defective DNA binding domain (see FIG. 5A) was employed. […] Quantification of the relative abundance of the m/z 766 ion in response to Wy14,643 administration in WT mice on a PPARα null background injected with AdFLAG-^ΔDBD PPARα adenovirus is shown in FIG. 5M. […]

`CCCCCCCC/C=C\CCCCCCCC(=O)O[C@H](COC(=O)CCCCCCCCCCCCCCC)COP(=O)([O-])OCC[N+](C)(C)C` [16:0/18:1-GPC, 1-palmitoyl-2-oleoyl-sn-glycerol-3-phosphocholine]: the “lowest dose causing increased expression of the PPARα target gene acyl CoA oxidase” value in series [1] (intraportal, rapid infusion (<1 min), mice) is recorded as 10 mg/kg. In addition, in series [1] (larger doses and slower infusion rates), the solubility of infusate entry is “poor solubility”. The lethality entry in series [1] (larger doses and slower infusion rates, portal vein) was “death due to portal vein thrombosis”.
As for `Cc1cccc(Nc2cc(Cl)nc(SCC(=O)O)n2)c1C` [Wy14,643, 4-Chloro-6-(2,3-xylidino)-2-pyrimidinylthioacetic acid], at ΔDBD-PPARα, the “displacement of m/z 766 (16:0/18:1-GPC) from ΔDBD-PPARα” value was “competed away from ΔDBD-PPARα within minutes”.
